Assay results as given in patent US20220267374A1, “IMMUNITY INDUCER AND PHARMACEUTICAL COMPOSITION FOR PREVENTING OR TREATING AGING-RELATED DISEASES” (priority 2019, published 2022).
Ends that are not written are not given here.

Tests used:
[1] = Open field test; assay type: in vivo, C57BL/6 mice; conditions: normal diet, s.c. vaccination at 50 weeks of age; vs control vaccine; FIG. 2L
Experimental: C57BL/6 mice bred by feeding a normal diet and administered with peptide vaccine 1 or a control vaccine by subcutaneous injection at a time point of 50 weeks of age were used. Open field tests were performed before and after vaccination (50 and 70 weeks of age). The open field test is a test that measures voluntary activity in a novel environment. Each mouse was placed in an open field and tested for 6 minutes. The total action time (seconds) and average speed (cm/sec) of each mouse during the test were measured. The difference between the measurement results at 50 weeks of age and the measurement results at 70 weeks of age is shown in FIG. 2L. In FIG. 2L, “Cont vac” is a C57BL/6 mouse administered with the control vaccine, and “Gpnmb vac” is a C57BL/6 mouse administered with the peptide vaccine 1.

[2] = test system: aging-related acidic β-galactosidase (SA-β-gal); assay: SA-β-gal staining of adipose tissue; assay type: in vivo, C57BL/6 mice; conditions: HFD-fed mice, 16 weeks of age, s.c. vaccination at 8 weeks of age, vs control vaccine, FIGS. 2G, 2H
Experimental: Aging-related acidic β-galactosidase (SA-β-gal) activity in adipose tissue was tested. Briefly, adipose tissue newly isolated from each Gpnmb-DTR mouse was incubated at 37° C. for 2 hours in a β-gal staining solution (containing 1 mg/ml of 5-bromo-4-chloro-3-indaryl β-D-galactopyranoside (X-gal), 5 mmol/L potassium ferrocyanide, 150 mmol/L of sodium chloride, 2 mmol/L of magnesium chloride, 0.01% of sodium deoxycholate, and 0.02% of nonidet-40). Then, the stained adipose tissue was captured (refer to FIG. 1C). SA-β-gal stainability was quantified by Image-J software (refer to FIG. 1D). […]
SA-β-gal staining was performed using the same method as in “3.” of Reference Example 1, except that adipose tissue collected from C57BL/6 mice (16 weeks of age) bred by feeding HFD from 4 weeks of age and administered with peptide vaccine 1 or a control vaccine by subcutaneous injection at a time point of 8 weeks of age was used. The SA-β-gal stainability was quantified by Image-J software (refer to FIG. 2H). […]

[3] = test system: GPNMB-positive cells; assay: Gpnmb-dependent luciferase activity in the aorta; assay type: in vivo, ApoE/Gpnmb-DTR mice; conditions: HFD from 4 to 16 weeks of age, s.c. vaccination at 8 weeks of age; vs control vaccine; FIG. 2J
Experimental: Gpnmb-DTR mouse bred by feeding normal diet or HFD for 4 weeks, and Gpnmb-DTR mouse bred by feeding HFD for 4 weeks, and then injecting DT (50 μg/kg body weight) at 2-week intervals (12 weeks of age and 14 weeks of age) intraperitoneally twice while continuing to feed HFD (16 weeks of age) were subjected to in vivo luciferase imaging analysis using the IVIS imaging system (Perkin Elmer). Mice were shaved ventrally, anesthetized with isoflurane (Wako Pure Chemicals Industries), and injected intraperitoneally with luciferin (150 mg/kg body weight) according to the manufacturer's instructions (Vivo-Glo; Promega). Luciferase activity was monitored 5 minutes after luciferin administration. Signals were analyzed using Living Image software (Perkin Elmer) to quantify luciferase activity. […]
Detection of arteriosclerotic plaque and analysis of Gpnmb-dependent luciferase activity were performed using the same method as in “6.” and “2.” of Reference Example 1, except that ApoE/Gpnmb-DTR mice (16 weeks of age) bred while feeding HFD for 12 weeks from 4 to 16 weeks of age and administered with peptide vaccine 1 or a control vaccine by subcutaneous injection at a time point of 8 weeks of age were used (refer to FIG. 2J). The Oil Red O stained region was quantified by Image-J software (refer to FIG. 2K). […]

[4] = test system: p19^Arf; assay: Analysis of p19Arf-dependent luciferase activity; assay type: in vivo, p19^Arf-DTR-Luc mouse; conditions: HFD-fed p19Arf-DTR-Luc mouse, 21 weeks of age, s.c. vaccination at 13 weeks of age; vs control vaccine; FIG. 2F
[5] = test system: Gpnmb, Cdkn1a, and Cdkn2a; assay: RNA analysis (qPCR) of adipose tissue; assay type: in vivo, C57BL/6 mice; conditions: HFD-fed mice, 16 weeks of age, s.c. vaccination at 8 weeks of age, FIG. 2C
Experimental: Total RNA (1 μg) was isolated from adipose tissue samples using RNA-Bee (TEL-TEST Inc.). Real-time PCR (qPCR) was performed using a Light Cycler 480 (Roche) equipped with a universal probe library and a Light Cycler 480 probe master (Roche) according to the manufacturer's instructions. Rplp0 was used as an internal control.
RNA analysis of Gpnmb, Cdkn1a, and Cdkn2a was performed using the same method as in “4.” of Reference Example 1, except that adipose tissue collected from C57BL/6 mice (16 weeks of age) bred by feeding HFD from 4 weeks of age and administered with peptide vaccine 1 or a control vaccine by subcutaneous injection at a time point of 8 weeks of age was used. In FIG. 2C, “Cont vac” is a C57BL/6 mouse administered with a control vaccine, and “Gpnmb vac” is a C57BL/6 mouse administered with peptide vaccine 1.

In the case of “RRGDGRWKD (also: KLH conjugate; listed as Mus musculus) [peptide vaccine 1, peptide of positions 63 to 71 of mouse GPNMB protein]”, the “results in the open field test (total action time, average speed; difference 50 vs 70 weeks of age)” value [1] is reported as “significantly improved”, the SA-β-gal activity [2] is reported as “decrease” and the “Gpnmb-dependent luciferase activity in the aorta” value [3] is reported as “decreased”. For the same sequence, the “p19Arf-dependent luciferase activity in visceral adipose tissue” value [4] was “decrease”, the “expression of Cdkn1a” value [5] was “downregulation” and the “expression of Cdkn2a” value [5] was “downregulation”.
